# Results published in US20170252442A1, “PHOTOHEXER COMPOUNDS AND PHARMACEUTICAL COMPOSITION AND USE THEREOF” (RAINBOW PHARMATECH LLC, priority 2014, published 2017).
# Columns and labels:
# CT26 cells = assay: MTT assay, photodynamic therapy on CT26 cells; format: cell-based, murine
# From the text: (§1) The cells in logarithmic growth phase were collected and inoculated on 24-well culture plates. When reaching 70%-80% confluence, cells were divided randomly into the following groups: control (the parallel control group without photosensitizer and irradiation), irradiation (irradiation treatment alone without photosensitizer); (photosensitizer treatment alone without irradiation), photodynamic treatment (treatment by photosensitizer in combination with irradiation). For the photosensitizer alone treatment group and photodynamic treatment group, an appropriate amount of Photohexer-1 (P-1) or Photohexer-2 (P-2) was respectively added away from light to give a final concentration of 0.8, 1.6, 3.2, 6.4 μM. Each group set 3 replicates. Cells were incubated with the active agent, different treatments were carried out according to the grouping. […] After treatment and digestion of each group of cells, it was inoculated into a 96-well plate at 100 μL/well, and four wells were set for each treatment. MTT assay was performed after 24 h from inoculation: 20 μL MTT solution was added to each well under the condition away from light, and the culture was continued for 4 hours. 150 μL DMSO was added to each well after discarding the supernatant. After 15 min of dissolution, the absorbance value (OD value) was measured using a microplate reader and the relative survival rate of cells was calculated according to the following formula: […]
# Eca-109 cells = assay: MTT assay, photodynamic therapy on Eca-109 cells; format: cell-based, human
# From the text: as §1
# the cell lines = assay: MTT assay, summary over the cell lines (photosensitizer alone); format: cell-based; details: without light irradiation; selected drug concentration range (0.8-6.4 μM)
# From the text: The cells in logarithmic growth phase were collected and inoculated on 24-well culture plates. When reaching 70%-80% confluence, cells were divided randomly into the following groups: control (the parallel control group without photosensitizer and irradiation), irradiation (irradiation treatment alone without photosensitizer); (photosensitizer treatment alone without irradiation), photodynamic treatment (treatment by photosensitizer in combination with irradiation). For the photosensitizer alone treatment group and photodynamic treatment group, an appropriate amount of Photohexer-1 (P-1) or Photohexer-2 (P-2) was respectively added away from light to give a final concentration of 0.8, 1.6, 3.2, 6.4 μM. Each group set 3 replicates. Cells were incubated with the active agent, different treatments were carried out according to the grouping. Three different light intensities were selected for the photodynamic treatment group, which were 2.6, 5.2 and 12.4 J/cm^2, respectively. After treatment and digestion of each group of cells, it was inoculated into a 96-well plate at 100 μL/well, and four wells were set for each treatment. […] After 15 min of dissolution, the absorbance value (OD value) was measured using a microplate reader and the relative survival rate of cells was calculated according to the following formula: […]
# MCF-7/ADR cells = assay: MTT assay, photodynamic therapy on MCF-7/ADR cells; format: cell-based, human
# From the text: as §1
# SW-480 cells = assay: MTT assay, photodynamic therapy on SW-480 cells; format: cell-based, human
# From the text: as §1
# [1] = 0.8 μM alone treatment, without irradiation
# [2] = 0.8 μM combined with 2.6 J/cm^2 light irradiation
# [3] = 0.8 μM combined with 5.2 J/cm^2 light irradiation
# [4] = 0.8 μM combined with 10.4 J/cm^2 light irradiation
# [5] = 1.6 μM alone treatment, without irradiation
# [6] = 1.6 μM combined with 2.6 J/cm^2 light irradiation
# [7] = 1.6 μM combined with 5.2 J/cm^2 light irradiation
# [8] = 1.6 μM combined with 10.4 J/cm^2 light irradiation
# [9] = 3.2 μM alone treatment, without irradiation
# [10] = 3.2 μM combined with 2.6 J/cm^2 light irradiation
# [11] = 3.2 μM combined with 5.2 J/cm^2 light irradiation
# [12] = 3.2 μM combined with 10.4 J/cm^2 light irradiation
# [13] = 6.4 μM alone treatment, without irradiation
# [14] = 6.4 μM combined with 2.6 J/cm^2 light irradiation
# [15] = 6.4 μM combined with 5.2 J/cm^2 light irradiation
# [16] = 6.4 μM combined with 10.4 J/cm^2 light irradiation
smiles,measurement,setting,value
"C=CC1=C(C)c2cc3[nH]c(cc4nc(cc5[nH]c(cc1n2)c(C)c5CCC(=O)[O-])C(CCC(=O)[O-])=C4C)c(C)c3C(C)OCCCCCC.[Na+].[Na+] (centres unmarked) [Photohexer P-1, 2-(1-hexyloxyethyl)-6,7-bis(propionatesodium)-1,3,5,8-tetramethyl-4-vinylporphyrin]",toxic side effects compared between P-1 and P-2,CT26 cells,higher than those of P-2
same,Cell survival rate,CT26 cells; [1],93.23 ± 3.43%
same,Cell survival rate,CT26 cells; [2],91.63 ± 3.46%
same,Cell survival rate,CT26 cells; [3],82.12 ± 4.98%
same,Cell survival rate,CT26 cells; [4],82.39 ± 4.63%
same,Cell survival rate,CT26 cells; [5],87.15 ± 2.45%
same,Cell survival rate,CT26 cells; [6],62.86 ± 2.29%
same,Cell survival rate,CT26 cells; [7],55.88 ± 2.95%
same,Cell survival rate,CT26 cells; [8],44.00 ± 3.29%
same,Cell survival rate,CT26 cells; [9],56.13 ± 1.69%
same,Cell survival rate,CT26 cells; [10],49.48 ± 2.06%
same,Cell survival rate,CT26 cells; [11],44.86 ± 1.57%
same,Cell survival rate,CT26 cells; [12],41.00 ± 2.66%
same,Cell survival rate,CT26 cells; [13],44.05 ± 1.26%
same,Cell survival rate,CT26 cells; [14],36.03 ± 1.17%
same,Cell survival rate,CT26 cells; [15],30.01 ± 1.07%
same,Cell survival rate,CT26 cells; [16],28.55 ± 1.47%
same,photosensitive toxicity compared between P-1 and P-2,Eca-109 cells,significantly stronger toxicity than that of P-2
same,Cell survival rate,Eca-109 cells; [1],99.32 ± 3.43%
same,Cell survival rate,Eca-109 cells; [2],84.64 ± 3.79%
same,Cell survival rate,Eca-109 cells; [3],74.34 ± 4.23%
same,Cell survival rate,Eca-109 cells; [4],60.09 ± 4.54%
same,Cell survival rate,Eca-109 cells; [5],97.28 ± 2.48%
same,Cell survival rate,Eca-109 cells; [6],64.63 ± 2.39%
same,Cell survival rate,Eca-109 cells; [7],66.40 ± 3.12%
same,Cell survival rate,Eca-109 cells; [8],41.05 ± 3.47%
same,Cell survival rate,Eca-109 cells; [9],92.81 ± 1.37%
same,Cell survival rate,Eca-109 cells; [10],44.02 ± 2.05%
same,Cell survival rate,Eca-109 cells; [11],41.43 ± 1.27%
same,Cell survival rate,Eca-109 cells; [12],36.89 ± 2.26%
same,Cell survival rate,Eca-109 cells; [13],80.68 ± 1.04%
same,Cell survival rate,Eca-109 cells; [14],42.24 ± 1.01%
same,Cell survival rate,Eca-109 cells; [15],37.97 ± 1.04%
same,Cell survival rate,Eca-109 cells; [16],35.04 ± 1.34%
same,cytotoxicity of alone treatment,the cell lines,did not produce significant cytotoxicity
same,cell toxicity,MCF-7/ADR cells,significant cell toxicity
same,Cell survival rate,MCF-7/ADR cells; [1],100.36 ± 3.70%
same,Cell survival rate,MCF-7/ADR cells; [2],55.89 ± 3.97%
same,Cell survival rate,MCF-7/ADR cells; [3],41.47 ± 4.88%
same,Cell survival rate,MCF-7/ADR cells; [4],37.45 ± 4.34%
same,Cell survival rate,MCF-7/ADR cells; [5],93.95 ± 2.47%
same,Cell survival rate,MCF-7/ADR cells; [6],53.43 ± 2.96%
same,Cell survival rate,MCF-7/ADR cells; [7],38.42 ± 2.51%
same,Cell survival rate,MCF-7/ADR cells; [8],32.58 ± 3.54%
same,Cell survival rate,MCF-7/ADR cells; [9],81.01 ± 1.58%
same,Cell survival rate,MCF-7/ADR cells; [10],50.99 ± 2.31%
same,Cell survival rate,MCF-7/ADR cells; [11],36.95 ± 1.89%
same,Cell survival rate,MCF-7/ADR cells; [12],31.79 ± 2.65%
same,Cell survival rate,MCF-7/ADR cells; [13],46.84 ± 1.02%
same,Cell survival rate,MCF-7/ADR cells; [14],45.48 ± 1.04%
same,Cell survival rate,MCF-7/ADR cells; [15],33.47 ± 1.41%
same,Cell survival rate,MCF-7/ADR cells; [16],27.27 ± 1.07%
same,Cell survival rate,SW-480 cells; [1],101.14 ± 3.20%
same,Cell survival rate,SW-480 cells; [2],99.72 ± 3.16%
same,Cell survival rate,SW-480 cells; [3],95.61 ± 3.11%
same,Cell survival rate,SW-480 cells; [4],89.28 ± 3.01%
same,Cell survival rate,SW-480 cells; [5],100.83 ± 2.47%
same,Cell survival rate,SW-480 cells; [6],97.08 ± 2.89%
same,Cell survival rate,SW-480 cells; [7],94.55 ± 2.77%
same,Cell survival rate,SW-480 cells; [8],85.85 ± 2.68%
same,Cell survival rate,SW-480 cells; [9],98.02 ± 2.59%
same,Cell survival rate,SW-480 cells; [10],96.00 ± 2.24%
same,Cell survival rate,SW-480 cells; [11],85.27 ± 1.89%
same,Cell survival rate,SW-480 cells; [12],65.70 ± 2.01%
same,Cell survival rate,SW-480 cells; [13],91.27 ± 1.09%
same,Cell survival rate,SW-480 cells; [14],77.99 ± 1.22%
same,Cell survival rate,SW-480 cells; [15],65.38 ± 1.32%
same,Cell survival rate,SW-480 cells; [16],57.31 ± 1.03%
